Test results published in US20250101041A1, “POSITIVE ALLOSTERIC MODULATORS OF THE MUSCARINIC ACETYLCHOLINE RECEPTOR M4” (Vanderbilt University, priority 2022, published 2025).

Target: T1, human mAChR M4 (Homo sapiens, UniProt P08173)
T1 construct: expressed in transfected cells; host or cells: CHO-K1 (American Type Culture Collection), stably expressing hM4 and Gqi5
T1 sequence (P08173 1-479): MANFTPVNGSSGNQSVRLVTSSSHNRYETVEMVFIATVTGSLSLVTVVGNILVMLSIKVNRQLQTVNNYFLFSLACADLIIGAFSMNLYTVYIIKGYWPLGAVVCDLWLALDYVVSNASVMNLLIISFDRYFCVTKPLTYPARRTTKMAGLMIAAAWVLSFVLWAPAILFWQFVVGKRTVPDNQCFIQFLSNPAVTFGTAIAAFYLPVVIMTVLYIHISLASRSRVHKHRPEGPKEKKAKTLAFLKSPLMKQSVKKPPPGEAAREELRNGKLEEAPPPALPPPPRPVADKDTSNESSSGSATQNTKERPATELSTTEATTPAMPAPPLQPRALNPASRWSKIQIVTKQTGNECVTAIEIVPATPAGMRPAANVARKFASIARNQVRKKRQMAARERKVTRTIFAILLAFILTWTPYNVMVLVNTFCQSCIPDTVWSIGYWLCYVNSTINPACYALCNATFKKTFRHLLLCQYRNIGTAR
Assay: mAChR M4 cell-based functional assay: calcium mobilization (Fluo-4, FDSS), potentiation of EC20 acetylcholine response in hM4-Gqi5 CHO-K1 cells
Design: Emax: dose or concentration left out as unconfirmed
Conditions: for Emax at 30 µM: CHO-K1, % ACh maximum at 30 μM; for Emax at 30 µM / EC50: human M4; for EC50: potentiation of EC20 acetylcholine response, calcium mobilization
In short: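 CHO-K1 cells stably co-expressing human M4 and chimeric Gqi5, loaded with Fluo-4 AM (50 min, 37 °C). Compounds in 11-point 1:3 series added first; EC20 acetylcholine added at 144 s and again at 230 s. Calcium read on FDSS at 1 Hz; EC50 and Emax from four-parameter logistic fit of potentiated EC20 response.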

SMILES | Emax at 30 µM | EC50 | Emax (CHO-K1)
Cc1cc2nccc(=O)n2nc1N1CCc2ncc(-c3ccccc3C(F)F)cc2C1 [Compound 1-434, 7-(3-(2-(difluoromethyl)phenyl)-7,8-dihydro-1,6-naphthyridin-6(5H)-yl)-8-methyl-4H-pyrimido[1,2-b]pyridazin-4-one] | 90% | 238 nM | –
Cc1cc2nccc(=O)n2nc1N1CCc2ncc(-c3cccc4[nH]cc(C)c34)cc2C1 [Compound 1-435, 8-methyl-7-(3-(3-methyl-1H-indol-4-yl)-7,8-dihydro-1,6-naphthyridin-6(5H)-yl)-4H-pyrimido[1,2-b]pyridazin-4-one] | 51% | 1980 nM | –
Cc1cc2nccc(=O)n2nc1N1CCc2ncc(-c3cccc4c3CCC4)cc2C1 [Compound 1-436, 7-(3-(2,3-dihydro-1H-inden-4-yl)-7,8-dihydro-1,6-naphthyridin-6(5H)-yl)-8-methyl-4H-pyrimido[1,2-b]pyridazin-4-one] | 78% | 484 nM | –
Cc1cc2nccc(=O)n2nc1N1CCc2ncc(-c3cccc(C#N)c3C)cc2C1 [Compound 1-437, 2-methyl-3-(6-(8-methyl-4-oxo-4H-pyrimido[1,2-b]pyridazin-7-yl)-5,6,7,8-tetrahydro-1,6-naphthyridin-3-yl)benzonitrile] | 70% | 1010 nM | –
Cc1cc2nccc(=O)n2nc1N1CCc2ncc(-c3ccccc3C3(C#N)CC3)cc2C1 [Compound 1-438, 1-(2-(6-(8-methyl-4-oxo-4H-pyrimido[1,2-b]pyridazin-7-yl)-5,6,7,8-tetrahydro-1,6-naphthyridin-3-yl)phenyl)cyclopropane-1-carbonitrile] | 45% | 3900 nM | –
Cc1cc2nccc(=O)n2nc1N1CCc2ncc(-c3ccccc3C(C)C)cc2C1 [Compound 1-439, 7-(3-(2-isopropylphenyl)-7,8-dihydro-1,6-naphthyridin-6(5H)-yl)-8-methyl-4H-pyrimido [1,2-b]pyridazin-4-one] | 22% | 1230 nM | –
Cc1cc2nccc(=O)n2nc1N1CCc2ncc(-c3ccccc3C3CC3)cc2C1 [Compound 1-440, 7-(3-(2-cyclopropylphenyl)-7,8-dihydro-1,6-naphthyridin-6(5H)-yl)-8-methyl-4H-pyrimido [1,2-b]pyridazin-4-one] | 56% | 380 nM | –
Cc1cc2nccc(=O)n2nc1N1CCc2ncc(-c3cccc(Cl)c3C)cc2C1 [Compound 1-441, 7-(3-(3-chloro-2-methylphenyl)-7,8-dihydro-1,6-naphthyridin-6(5H)-yl)-8-methyl-4H-pyrimido[1,2-b]pyridazin-4-one] | 78% | 606 nM | –
Cc1cc2nccc(=O)n2nc1N1CCc2ncc(-c3cccc(C)c3C)cc2C1 [Compound 1-442, 7-(3-(2,3-dimethylphenyl)-7,8-dihydro-1,6-naphthyridin-6(5H)-yl)-8-methyl-4H-pyrimido [1,2-b]pyridazin-4-one] | 86% | 411 nM | –
Cc1cc(F)ccc1-c1cnc2c(c1)CN(c1nn3c(=O)ccnc3cc1C)CC2 [Compound 1-443, 7-(3-(4-fluoro-2-methylphenyl)-7,8-dihydro-1,6-naphthyridin-6(5H)-yl)-8-methyl-4H-pyrimido [1,2-b]pyridazin-4-one] | 99% | 210 nM | –
COc1c(F)cc(-c2cnc3c(c2)CN(c2nn4c(=O)ccnc4cc2C)CC3)c(C)c1F [Compound 1-444, 7-(3-(3,5-difluoro-4-methoxy-2-methylphenyl)-7,8-dihydro-1,6-naphthyridin-6(5H)-yl)-8-methyl-4H-pyrimido [1,2-b]pyridazin-4-one] | 93% | 131 nM | –
Cc1cc(F)c(F)cc1-c1cnc2c(c1)CN(c1nn3c(=O)ccnc3cc1C)CC2 [Compound 1-445, 7-(3-(4,5-difluoro-2-methylphenyl)-7,8-dihydro-1,6-naphthyridin-6(5H)-yl)-8-methyl-4H-pyrimido[1,2-b]pyridazin-4-one] | 85% | 78 nM | –
Cc1cc(F)c(F)cc1-c1cnc2c(c1)CN(c1nn3c(=O)ccnc3c(C)c1C)CC2 [Compound 1-446, 7-(3-(4,5-difluoro-2-methylphenyl)-7,8-dihydro-1,6-naphthyridin-6(5H)-yl)-8,9-dimethyl-4H-pyrimido[1,2-b]pyridazin-4-one] | 85% | 574 nM | –
Cc1cc2nccc(=O)n2nc1N1CCc2ncc(-c3cc(F)cc(F)c3C)cc2C1 [Compound 1-447, 7-(3-(3,5-difluoro-2-methylphenyl)-7,8-dihydro-1,6-naphthyridin-6(5H)-yl)-8-methyl-4H-pyrimido [1,2-b]pyridazin-4-one] | 83% | 191 nM | –
Cc1ccc2c(n1)CCN(c1nn3c(=O)ccnc3cc1C)C2 [Compound 1-448, 8-methyl-7-(2-methyl-7,8-dihydro-1,6-naphthyridin-6(5H)-yl)-4H-pyrimido[1,2-b] pyridazin-4-one] | – | 2300 nM | 66%
[2H]C1([2H])Cc2ncc(-c3ccnn3C)cc2C([2H])([2H])N1c1nn2c(=O)ccnc2cc1C [Compound 1-449, 8-methyl-7-(3-(1-methyl-1H-pyrazol-5-yl)-7,8-dihydro-1,6-naphthyridin-6(5H)-yl-5,5,7,7-d4)-4H-pyrimido[1,2-b]pyridazin-4-one] | 93% | 283 nM | –
[2H]C1([2H])Cc2ncc(-c3c(C)noc3C)cc2C([2H])([2H])N1c1nn2c(=O)ccnc2cc1C [Compound 1-450, 7-(3-(3,5-Dimethylisoxazol-4-yl)-7,8-dihydro-1,6-naphthyridin-6(5H)-yl-5,5,7,7-d4)-8-methyl-4H-pyrimido[1,2-b]pyridazin-4-one] | 95% | 291 nM | –
Cc1cc2nccc(=O)n2nc1N1CCc2ncc(N3CCCn4nccc43)cc2C1 [Compound 2-1, 7-(3-(6,7-dihydropyrazolo[1,5-a]pyrimidin-4(5H)-yl)-7,8-dihydro-1,6-naphthyridin-6(5H)-yl)-8-methyl-4H-pyrimido[1,2-b]pyridazin-4-one] | 97% | 21 nM | –
Cc1cc2nccc(=O)n2nc1N1CCc2ncc(N3CCO[C@H](C)C3)cc2C1 [Compound 2-2, (R)-8-methyl-7-(3-(2-methylmorpholino)-7,8-dihydro-1,6-naphthyridin-6(5H)-yl)-4H-pyrimido[1,2-b]pyridazin-4-one] | 87% | 363 nM | –
Cc1cc(N2CCc3ncc(N4CCCn5nccc54)cc3C2)nn2c(=O)ccnc12 [Compound 2-3, 7-(3-(6,7-dihydropyrazolo[1,5-a]pyrimidin-4(5H)-yl)-7,8-dihydro-1,6-naphthyridin-6(5H)-yl)-9-methyl-4H-pyrimido[1,2-b]pyridazin-4-one] | 71% | 173 nM | –
Cc1cc2ncc(Cl)c(=O)n2nc1N1CCc2ncc(N3CCCn4nccc43)cc2C1 [Compound 2-4, 3-chloro-7-(3-(6,7-dihydropyrazolo[1,5-a]pyrimidin-4(5H)-yl)-7,8-dihydro-1,6-naphthyridin-6(5H)-yl)-8-methyl-4H-pyrimido[1,2-b]pyridazin-4-one] | 115% | 30 nM | –
Cc1cc2n(n1)CCCN2c1cnc2c(c1)CN(c1nn3c(=O)ccnc3cc1C)CC2 [Compound 2-5, 8-methyl-7-(3-(2-methyl-6,7-dihydropyrazolo[1,5-a]pyrimidin-4(5H)-yl)-7,8-dihydro-1,6-naphthyridin-6(5H)-yl)-4H-pyrimido[1,2-b]pyridazin-4-one] | 97% | 60 nM | –
Cc1cc2nccc(=O)n2nc1N1CCc2ncc(-n3cccn3)cc2C1 [Compound 2-6, 7-(3-(1H-pyrazol-1-yl)-7,8-dihydro-1,6-naphthyridin-6(5H)-yl)-8-methyl-4H-pyrimido[1,2-b]pyridazin-4-one] | 65% | 1170 nM | –
Cc1cc2nccc(=O)n2nc1N1CCc2ncc(N3CCOc4ncccc43)cc2C1 [Compound 2-7, 7-(3-(2,3-dihydro-1H-pyrido[2,3-b][1,4]oxazin-1-yl)-7,8-dihydro-1,6-naphthyridin-6(5H)-yl)-8-methyl-4H-pyrimido[1,2-b]pyridazin-4-one] | 84% | 24 nM | –
Cc1cc2nccc(=O)n2nc1N1CCc2ncc(Nc3ccnn3C)cc2C1 [Compound 2-8, 8-methyl-7-(3-((1-methyl-1H-pyrazol-5-yl)amino)-7,8-dihydro-1,6-naphthyridin-6(5H)-yl)-4H-pyrimido[1,2-b]pyridazin-4-one] | 84% | 384 nM | –
Cc1cc2nc(C)c(F)c(=O)n2nc1N1CCc2ncc(N3CCCn4nccc43)cc2C1 [Compound 2-9, 7-(3-(6,7-dihydropyrazolo[1,5-a]pyrimidin-4(5H)-yl)-7,8-dihydro-1,6-naphthyridin-6(5H)-yl)-3-fluoro-2,8-dimethyl-4H-pyrimido[1,2-b]pyridazin-4-one] | 84% | 17 nM | –
